Laboratory results taken from patent US20160193206A1, “BET-PROTEIN-INHIBITING DIHYDROPYRIDOPYRAZINONES” (BAYER PHARMA AKTIENGESELLSCHAFT, priority 2012, published 2016).

How the values were obtained:
[1] = molecular target: T1, BRD4 bromo domain 1 [BRD4(1)] (Homo sapiens, UniProt O60885); assay: BRD4(1)/acetylated peptide H4 binding assay (TR-FRET); conditions: inhibition of interaction between His6-tagged BRD4(1) (amino acids 67-152) and acetylated histone H4 peptide
T1 construct: N-terminally His6-tagged BRD4(1) (amino acids 67-152); made in house; host or cells: E. coli
Text: (§1) Protein-Protein Interaction Assay: BRD4/Acetylated Peptide H4 Binding Assay
1. Assay Description for BRD4 Bromo Domain 1 [BRD4(1)]
To assess the BRD4(1) binding strength of the substances described in this application, the ability thereof to inhibit the interaction between BRD4(1) and acetylated histone H4 in a dose-dependent manner was quantified.
(§2) For this purpose, a time-resolved fluorescence resonance energy transfer (TR-FRET) assay was used, which measures the binding between N-terminally His6-tagged BRD4(1) (amino acids 67-152) and a synthetic acetylated histone H4 (Ac-H4) peptide with sequence GRGK(Ac)GGK(Ac)GLGK(Ac)GGAK(Ac)RHGSGSK-biotin. The recombinant BRD4(1) protein produced in-house according to Filippakopoulos et al., Cell, 2012, 149:214-231 was expressed in E. coli and purified by means of (Ni-NTA) affinity and (Sephadex G-75) size exclusion chromatography. The Ac-H4 peptide can be purchased, for example, from Biosyntan (Berlin, Germany).
(§3) In the assay, typically 11 different concentrations of each substance (0.1 nM, 0.33 nM, 1.1 nM, 3.8 nM, 13 nM, 44 nM, 0.15 μM, 0.51 μM, 1.7 μM, 5.9 μM and 20 μM) were analysed as duplicates on the same microtitre plate. For this purpose, 100-fold concentrated solutions in DMSO were prepared by serial dilutions (1:3.4) of a 2 mM stock solution into a clear, 384-well microtitre plate (Greiner Bio-One, Frickenhausen, Germany). From this, 50 nl were transferred into a black test plate (Greiner Bio-One, Frickenhausen, Germany). The test was started by the addition of 2 μl of a 2.5-fold concentrated BRD4(1) solution (final concentration typically 10 nM in the 5 μl of reaction volume) in aqueous assay buffer [50 mM HEPES pH 7.5, 50 mM sodium chloride (NaCl), 0.25 mM CHAPS and 0.05% serum albumin (BSA)] to the substances in the test plate. This was followed by a 10-minute incubation step at 22° C. for the pre-equilibration of putative complexes between BRD4(1) and the substances.
(§4) The mixture was then incubated in the dark at 22° C. for one hour and then at 4° C. for at least 3 hours and for no longer than overnight. The formation of BRD4(1)/Ac-H4 complexes was determined by the measurement of the resonance energy transfer from the streptavidin-Eu cryptate to the anti-6His-XL665 antibody present in the reaction. For this purpose, the fluorescence emission was measured at 620 nm and 665 nm after excitation at 330-350 nm in a TR-FRET measuring instrument, for example a Rubystar or Pherastar (both from BMG Lab Technologies, Offenburg, Germany) or a Viewlux (Perkin-Elmer). The ratio of the emissions at 665 nm and at 622 nm was taken as an indicator of the amount of BRD4(1)/Ac-H4 complexes formed.
(§5) The data (ratios) obtained were normalized, with 0% inhibition corresponding to the mean from the measurements for a set of controls (typically 32 data points) in which all the reagents were present. In these, in place of test substances, 50 nl of DMSO (100%) were used. Inhibition of 100% corresponded to the mean from the measurements for a set of controls (typically 32 data points) in which all the reagents except BRD4(1) were present. The IC50 was determined by regression analysis based on a 4-parameter equation (minimum, maximum, IC50, Hill; Y=max+(min−max)/(1+(X/IC50)Hill).

[2] = molecular target: T2, BRD4 bromo domain 2 [BRD4(2)] (Homo sapiens, UniProt O60885); assay: BRD4(2)/acetylated peptide H4 binding assay (TR-FRET); conditions: inhibition of interaction between His6-tagged BRD4(2) (amino acids 357-445) and acetylated histone H4 peptide
T2 construct: N-terminally His6-tagged BRD4(2) (amino acids 357-445); made in house; host or cells: E. coli
Text: as §1
2. Assay Description for BRD4 Bromo Domain 2 [BRD4(2)]
To assess the BRD4(2) binding strength of the substances described in this application, the ability thereof to inhibit the interaction between BRD4(2) and acetylated histone H4 in a dose-dependent manner was quantified.
as §2, with “BRD4(2)” for “BRD4(1)”, “357-445)” for “67-152)”, “SGRGK(Ac)GGK(Ac)GLGK(Ac)GGAK(Ac)RHRKVLRDNGSGSK-biotin.” for “GRGK(Ac)GGK(Ac)GLGK(Ac)GGAK(Ac)RHGSGSK-biotin.”
as §3, with “concentrated BRD4(2)” for “concentrated BRD4(1)”, “typically 100” for “typically 10”, “chloride (NaCl); 50 mM potassium fluoride (KF);” for “chloride (NaCl),”, “between BRD4(2)” for “between BRD4(1)”
as §4, with “BRD4(2)/Ac-H4” for “BRD4(1)/Ac-H4”, “chelate” for “cryptate”
as §5, with “BRD4(2)” for “BRD4(1)”

IC50 [1] [nM] | IC50 [2] [nM] | SMILES
104 | 111 | COc1cc(C(=O)NC2CCN(C)CC2)ccc1Nc1ccc2c(n1)N(C1CCCCC1)[C@H](C)C(=O)N2C [Example 12, 4-{[(3R)-4-Cyclohexyl-1,3-dimethyl-2-oxo-1,2,3,4-tetrahydropyrido[2,3-b]pyrazin-6-yl]amino}-3-methoxy-N-(1-methylpiperidin-4-yl)benzamide]
286 | 212 | CC(C)N1CCN(S(=O)(=O)c2ccc(Nc3ccc4c(n3)N(C3CCOCC3)[C@H](C)C(=O)N4C)cc2)CC1 [Example 16, (3R)-1,3-Dimethyl-6-[(4-{[4-(propan-2-yl)piperazin-1-yl]sulphonyl}phenyl)amino]-4-(tetrahydro-2H-pyran-4-yl)-3,4-dihydropyrido[2,3-b]pyrazin-2(1H)-one]
308 | 111 | C[C@@H]1C(=O)N(C)c2ccc(Nc3ccc(S(=O)(=O)N(C)C)cc3)nc2N1C1CCCCC1 [Example 17, 4-{[(3R)-4-Cyclohexyl-1,3-dimethyl-2-oxo-1,2,3,4-tetrahydropyrido[2,3-b]pyrazin-6-yl]amino}-N,N-dimethylbenzenesulphonamide]
219 | 185 | C[C@@H]1C(=O)N(C)c2ccc(Nc3ccc(S(=O)(=O)NCCc4cccnc4)cc3)nc2N1C1CCOCC1 [Example 19, 4-{[(3R)-1,3-dimethyl-2-oxo-4-(tetrahydro-2H-pyran-4-yl)-1,2,3,4-tetrahydropyrido[2,3-b]pyrazin-6-yl]amino}-N-[2-(pyridin-3-yl)ethyl]benzene-sulphonamide]
195 | 116 | COc1cc(C(=O)N2CCN(C(C)C)CC2)ccc1Nc1ccc2c(n1)N(C1CCCCC1)[C@H](C)C(=O)N2C [Example 28, (3R)-4-Cyclohexyl-6-[(2-methoxy-4-{[4-(propan-2-yl)piperazin-1-yl]carbonyl}phenyl)amino]-1,3-dimethyl-3,4-dihydropyrido[2,3-b]pyrazin-2(1H)-one]
242 | 149 | C[C@@H]1C(=O)N(C)c2ccc(Nc3ccc(C(=O)N4CC5(CCS5(=O)=O)C4)cc3)nc2N1C1CCCCC1 [Example 29, (3R)-4-Cyclohexyl-6-({4-[(1,1-dioxido-1-thia-6-azaspiro[3.3]hept-6-yl)carbonyl]phenyl}amino)-1,3-dimethyl-3,4-dihydropyrido[2,3-b]pyrazin-2(1H)-one]
241 | 108 | CC(C)N1CCN(C(=O)c2ccc(Nc3ccc4c(n3)N(C3CCCCC3)[C@H](C)C(=O)N4C)cc2)CC1 [Example 31, (3R)-4-Cyclohexyl-1,3-dimethyl-6-[(4-{[4-(propan-2-yl)piperazin-1-yl]carbonyl}phenyl)amino]-3,4-dihydropyrido[2,3-b]pyrazin-2(1H)-one]
376 | 77 | COc1cc(C(=O)N2CC3(COC3)C2)ccc1Nc1ccc2c(n1)N(C1CCCCCC1)[C@H](C)C(=O)N2C [Example 32, (3R)-4-Cycloheptyl-6-{[2-methoxy-4-(2-oxa-6-azaspiro[3.3]hept-6-ylcarbonyl)phenyl]amino}-1,3-dimethyl-3,4-dihydropyrido[2,3-b]pyrazin-2(1H)-one]
329 | 80 | C[C@@H]1C(=O)N(C)c2ccc(Nc3ccc(C(=O)N4CC5(CCS5(=O)=O)C4)cc3)nc2N1C1CCCCCC1 [Example 33, (3R)-4-Cycloheptyl-6-({4-[(1,1-dioxido-1-thia-6-azaspiro[3.3]hept-6-yl)carbonyl]phenyl}amino)-1,3-dimethyl-3,4-dihydropyrido[2,3-b]pyrazin-2(1H)-one]
119 | 237 | C[C@@H]1C(=O)N(C)c2ccc(Nc3ccc(C(=O)NCc4ccccn4)cc3)nc2N1C1CCOCC1 [Example 35, 4-{[(3R)-1,3-Dimethyl-2-oxo-4-(tetrahydro-2H-pyran-4-yl)-1,2,3,4-tetrahydropyrido[2,3-b]pyrazin-6-yl]amino}-N-(pyridin-2-ylmethyl)benzamide]
257 | 245 | Cc1cc(C(=O)N2CCN(C)CC2)ccc1Nc1ccc2c(n1)N(C1CCOCC1)[C@H](C)C(=O)N2C [Example 36, (3R)-1,3-Dimethyl-6-({2-methyl-4-[(4-methylpiperazin-1-yl)carbonyl]phenyl}amino)-4-(tetrahydro-2H-pyran-4-yl)-3,4-dihydropyrido[2,3-b]pyrazin-2(1H)-one]
329 | 145 | COc1cc(C(=O)NC2CCN(C(C)=O)CC2)ccc1Nc1ccc2c(n1)N(C1CCCCC1)[C@H](C)C(=O)N2C [Example 39, N-(1-Acetylpiperidin-4-yl)-4-{[(3R)-4-cyclohexyl-1,3-dimethyl-2-oxo-1,2,3,4-tetrahydropyrido[2,3-b]pyrazin-6-yl]amino}-3-methoxybenzamide]
295 | 161 | COc1cc(C(=O)N2CCN(C(C)C)CC2)ccc1Nc1ccc2c(n1)N(C1CCCCCC1)[C@H](C)C(=O)N2C [Example 40, (3R)-4-Cycloheptyl-6-[(2-methoxy-4-{[4-(propan-2-yl)piperazin-1-yl]carbonyl}phenyl)amino]-1,3-dimethyl-3,4-dihydropyrido[2,3-b]pyrazin-2(1H)-one]
